From paper PMC6282443 (Journal of Enzyme Inhibition and Medicinal Chemistry, 2018)
Like-named read-outs stand apart in the source and are kept apart here.

Columns and labels:
Assay type in all cases: cell-based, human
[1] = tested on: HepG2 cells; test: MTT anti-proliferative assay, HepG2; conditions: read-out: Anti-proliferative activity IC50, HepG2
[2] = tested on: A549 cells; test: cells; conditions: read-out: Anti-proliferative activity IC50, A549
[3] = tested on: MCF-7 cells; test: MTT anti-proliferative assay, MCF-7; conditions: read-out: Anti-proliferative activity IC50, MCF-7
[4] = tested on: H1975 cells; conditions: H1975, MTT

IC50 ([1]; Homo sapiens, HepG2, 72 h)	IC50 ([2]; Homo sapiens, A549, 72 h)	IC50 ([3]; Homo sapiens, MCF7, 72 h)	IC50 ([1]; HepG2, MTT, 72 h)	IC50 ([2]; A549, MTT, 72 h)	IC50 ([3]; MCF-7, MTT, 72 h)	IC50 ([4]; read-out: Anti-proliferative activity IC50, H1975, 72 h)	SMILES	inhibitory activity against H1975 cells (in words) [4]
0.72 ± 0.19 µM	2.84 ± 0.22 µM	2.63 ± 0.16 µM	–	–	–	–	COc1cc2ncnc(Nc3ccc(F)c(Cl)c3)c2cc1NC(=O)N/N=C/c1ccc(N(C)C)cc1 [Compound 9, (E)-N-(4-((3-chloro-4-fluorophenyl)amino)-7-methoxyquinazolin-6-yl)-2-(4-(dimethylamino)benzylidene)hydrazine-1-carboxamide]	poorer cellular activity
0.14 ± 0.08 µM	1.51 ± 0.13 µM	0.61 ± 0.12 µM	–	–	–	–	CN(C)c1ccc(/C=N/NC(=O)Nc2cc3c(Nc4ccc(F)c(Cl)c4)ncnc3cc2O[C@H]2CCOC2)cc1 [Compound 10, (S,E)-N-(4-((3-chloro-4-fluorophenyl)amino)-7-((tetrahydrofuran-3-yl)oxy)quinazolin-6-yl)-2-(4-(dimethylamino)benzylidene)hydrazine-1-carboxamide]	moderate inhibitory activity
0.31 ± 0.13 µM	0.28 ± 0.12 µM	0.35 ± 0.09 µM	–	–	–	–	CCN(CC)c1ccc(/C=N/NC(=O)Nc2cc3c(Nc4ccc(F)c(Cl)c4)ncnc3cc2O[C@H]2CCOC2)cc1 [Compound 12, (S,E)-N-(4-((3-chloro-4-fluorophenyl)amino)-7-((tetrahydrofuran-3-yl)oxy)quinazolin-6-yl)-2-(4-(diethylamino)benzylidene)hydrazine-1-carboxamide]	moderate inhibitory activity
8.17 ± 0.98 µM	10.5 ± 0.77 µM	14 ± 0.78 µM	–	–	–	–	O=C(N/N=C/c1ccc(N2CCCC2)o1)Nc1cc2c(Nc3ccc(F)c(Cl)c3)ncnc2cc1O[C@H]1CCOC1 [Compound 15, (S,E)-N-(4-((3-chloro-4-fluorophenyl)amino)-7-((tetrahydrofuran-3-yl)oxy)quinazolin-6-yl)-2-((5-(pyrrolidin-1-yl)furan-2-yl)methylene)hydrazine-1-carboxamide]	poorer cellular activity
53.6 ± 4.75 µM	23.1 ± 1.54 µM	36.9 ± 3.54 µM	–	–	–	–	CCN(CC)Cc1ccc(/C=N/NC(=O)Nc2cc3c(Nc4ccc(F)c(Cl)c4)ncnc3cc2O[C@H]2CCOC2)cc1 [Compound 26, (S,E)-N-(4-((3-chloro-4-fluorophenyl)amino)-7-((tetrahydrofuran-3-yl)oxy)quinazolin-6-yl)-2-(4-((diethylamino)methyl)benzylidene)hydrazine-1-carboxamide]	–
> 100 µM	> 100 µM	> 100 µM	–	–	–	–	O=C(N/N=C/c1ccc(CN2CCOCC2)cc1)Nc1cc2c(Nc3ccc(F)c(Cl)c3)ncnc2cc1O[C@H]1CCOC1 [Compound 29, (S,E)-N-(4-((3-chloro-4-fluorophenyl)amino)-7-((tetrahydrofuran-3-yl)oxy)quinazolin-6-yl)-2-(4-(morpholinomethyl)benzylidene)hydrazine-1-carboxamide]	–
17 ± 1.04 µM	33.8 ± 1.14 µM	28.5 ± 1.27 µM	–	–	–	–	O=C(N/N=C/c1ccc(OCCCN2CCCC2)cc1)Nc1cc2c(Nc3ccc(F)c(Cl)c3)ncnc2cc1O[C@H]1CCOC1 [Compound 51, (S,E)-N-(4-((3-chloro-4-fluorophenyl)amino)-7-((tetrahydrofuran-3-yl)oxy)quinazolin-6-yl)-2-(4-(3-(pyrrolidin-1-yl)propoxy)benzylidene)hydrazine-1-carboxamide]	–
> 100 µM	> 100 µM	> 100 µM	–	–	–	–	O=C(N/N=C/c1ccc(OCCCN2CCOCC2)cc1)Nc1cc2c(Nc3ccc(F)c(Cl)c3)ncnc2cc1O[C@H]1CCOC1 [Compound 53, (S,E)-N-(4-((3-chloro-4-fluorophenyl)amino)-7-((tetrahydrofuran-3-yl)oxy)quinazolin-6-yl)-2-(4-(3-morpholinopropoxy)benzylidene)hydrazine-1-carboxamide]	–

The next lines start with the compound.

SMILES	IC50 ([1]; Homo sapiens, HepG2, 72 h)	IC50 ([2]; Homo sapiens, A549, 72 h)	IC50 ([3]; Homo sapiens, MCF7, 72 h)	IC50 ([1]; HepG2, MTT, 72 h)	IC50 ([2]; A549, MTT, 72 h)	IC50 ([3]; MCF-7, MTT, 72 h)	IC50 ([4]; read-out: Anti-proliferative activity IC50, H1975, 72 h)	inhibitory activity against H1975 cells (in words) [4]
CCN(CC)c1ccc(/C=N/NC(=O)Nc2cc3c(Nc4ccc(F)c(Cl)c4)ncnc3cc2OC)cc1 [Compound 11, (E)-N-(4-((3-chloro-4-fluorophenyl)amino)-7-methoxyquinazolin-6-yl)-2-(4-(diethylamino)benzylidene)hydrazine-1-carboxamide]	11.5 ± 1.16 µM	31.4 ± 2.12 µM	15.4 ± 1.14 µM	–	–	–	–	–
O=C(N/N=C/c1ncc(N2CCOCC2)s1)Nc1cc2c(Nc3ccc(F)c(Cl)c3)ncnc2cc1O[C@H]1CCOC1 [Compound 13, (S,E)-N-(4-((3-chloro-4-fluorophenyl)amino)-7-((tetrahydrofuran-3-yl)oxy)quinazolin-6-yl)-2-((5-morpholinothiazol-2-yl)methylene)hydrazine-1-carboxamide]	1.35 ± 0.31 µM	1.48 ± 0.19 µM	1.35 ± 0.14 µM	–	–	–	–	moderate inhibitory activity
CN(C)c1ccc(/C=N/NC(=O)Nc2cc3c(Nc4ccc(F)c(Cl)c4)ncnc3cc2O[C@H]2CCOC2)s1 [Compound 16, (S,E)-N-(4-((3-chloro-4-fluorophenyl)amino)-7-((tetrahydrofuran-3-yl)oxy)quinazolin-6-yl)-2-((5-(dimethylamino)thiophen-2-yl)methylene)hydrazine-1-carboxamide]	2.43 ± 0.45 µM	2.5 ± 0.36 µM	3.68 ± 0.49 µM	–	–	–	–	poorer cellular activity
COc1cc2ncnc(Nc3ccc(F)c(Cl)c3)c2cc1NC(=O)N/N=C/c1ccc(N2CCCC2)nc1 [Compound 17, (E)-N-(4-((3-chloro-4-fluorophenyl)amino)-7-methoxyquinazolin-6-yl)-2-((6-(pyrrolidin-1-yl)pyridin-3-yl)methylene) hydrazine-1-carboxamide]	–	–	–	13.2 ± 1.31 µM	14.6 ± 1.21 µM	12.9 ± 1.12 µM	35.3 ± 2.35 µM	–
O=C(N/N=C/c1ccc(N2CCCC2)nc1)Nc1cc2c(Nc3ccc(F)c(Cl)c3)ncnc2cc1O[C@H]1CCOC1 [Compound 18, (S,E)-N-(4-((3-chloro-4-fluorophenyl)amino)-7-((tetrahydrofuran-3-yl)oxy)quinazolin-6-yl)-2-((6-(pyrrolidin-1-yl)pyridin-3-yl)methylene)hydrazine-1-carboxamide]	5.81 ± 0.61 µM	19.2 ± 1.46 µM	12.4 ± 1.25 µM	–	–	–	–	–
COc1cc2ncnc(Nc3ccc(F)c(Cl)c3)c2cc1NC(=O)N/N=C/c1ccc(CN2CCCCC2)cc1 [Compound 22, (E)-N-(4-((3-chloro-4-fluorophenyl)amino)-7-methoxyquinazolin-6-yl)-2-(4-(piperidin-1-ylmethyl)benzylidene)hydrazine-1-carboxamide]	59.5 ± 4.75 µM	24.2 ± 2.27 µM	31.1 ± 2.55 µM	–	–	–	–	–
COc1cc2ncnc(Nc3ccc(F)c(Cl)c3)c2cc1NC(=O)N/N=C/c1ccc(CN2CCOCC2)cc1 [Compound 23, (E)-N-(4-((3-chloro-4-fluorophenyl)amino)-7-methoxyquinazolin-6-yl)-2-(4-(morpholinomethyl)benzylidene)hydrazine-1-carboxamide]	> 100 µM	> 100 µM	> 100 µM	–	–	–	–	–
O=C(N/N=C/c1ccc(CN2CCCC2)cc1)Nc1cc2c(Nc3ccc(F)c(Cl)c3)ncnc2cc1O[C@H]1CCOC1 [Compound 27, (S,E)-N-(4-((3-chloro-4-fluorophenyl)amino)-7-((tetrahydrofuran-3-yl)oxy)quinazolin-6-yl)-2-(4-(pyrrolidin-1-ylmethyl)benzylidene)hydrazine-1-carboxamide]	> 100 µM	> 100 µM	> 100 µM	–	–	–	–	–
O=C(N/N=C/c1ccc(CN2CCCCC2)cc1)Nc1cc2c(Nc3ccc(F)c(Cl)c3)ncnc2cc1O[C@H]1CCOC1 [Compound 28, (S,E)-N-(4-((3-chloro-4-fluorophenyl)amino)-7-((tetrahydrofuran-3-yl)oxy)quinazolin-6-yl)-2-(4-(piperidin-1-ylmethyl)benzylidene)hydrazine-1-carboxamide]	3.13 ± 0.45 µM	2.25 ± 0.32 µM	4.3 ± 0.63 µM	–	–	–	–	–
CN1CCN(Cc2ccc(/C=N/NC(=O)Nc3cc4c(Nc5ccc(F)c(Cl)c5)ncnc4cc3O[C@H]3CCOC3)cc2)CC1 [Compound 30, (S,E)-N-(4-((3-chloro-4-fluorophenyl)amino)-7-((tetrahydrofuran-3-yl)oxy)quinazolin-6-yl)-2-(4-((4-methylpiperazin-1-yl)methyl)benzylidene)hydrazine-1-carboxamide]	17.5 ± 1.62 µM	24.9 ± 1.66 µM	21 ± 1.68 µM	–	–	–	–	–
CCN(CC)CCCOc1ccc(/C=N/NC(=O)Nc2cc3c(Nc4ccc(F)c(Cl)c4)ncnc3cc2O[C@H]2CCOC2)cc1 [Compound 50, (S,E)-N-(4-((3-chloro-4-fluorophenyl)amino)-7-((tetrahydrofuran-3-yl)oxy)quinazolin-6-yl)-2-(4-(3-(diethylamino)propoxy)benzylidene)hydrazine-1-carboxamide]	1.08 ± 0.17 µM	1.11 ± 0.14 µM	1.23 ± 0.37 µM	–	–	–	–	–
O=C(N/N=C/c1ccc(OCCCN2CCCCC2)cc1)Nc1cc2c(Nc3ccc(F)c(Cl)c3)ncnc2cc1O[C@H]1CCOC1 [Compound 52, (S,E)-N-(4-((3-chloro-4-fluorophenyl)amino)-7-((tetrahydrofuran-3-yl)oxy)quinazolin-6-yl)-2-(4-(3-(piperidin-1-yl)propoxy)benzylidene)hydrazine-1-carboxamide]	2.28 ± 0.26 µM	4.65 ± 0.39 µM	2.56 ± 0.46 µM	–	–	–	–	–
CN1CCN(CCCOc2ccc(/C=N/NC(=O)Nc3cc4c(Nc5ccc(F)c(Cl)c5)ncnc4cc3O[C@H]3CCOC3)cc2)CC1 [Compound 54, (S,E)-N-(4-((3-chloro-4-fluorophenyl)amino)-7-((tetrahydrofuran-3-yl)oxy)quinazolin-6-yl)-2-(4-(3-(4-methylpiperazin-1-yl)propoxy)benzylidene)hydrazine-1-carboxamide]	41.2 ± 2.04 µM	40 ± 2.14 µM	38.4 ± 1.26 µM	–	–	–	–	–
